This is an account of results in US6201116A, “Halide indicators” (The Regents of the University of California, priority 1999, dated 2001).

Data set [1] in a line: Fluorescence spectra / optical properties. In kind it is physicochemical. More on the design: key to Brightness: ++++: very bright; +++: bright; ++: moderate brightness; +: weak. Here is the method:
Computations. In vitro fluorescence quenching studies were carried out at peak excitation and emission wavelengths. Microliter aliquots of the sodium salt of the quenching anion (1 M) were added to indicator solution in 5 mM sodium phosphate (pH 7.2, unless indicated otherwise). Fluorescence intensities in the absence (Fo) and presence (F) of quencher anion ([Q]) were measured to give the Stem-Volmer constant (Kq) as defined by:
Fluorescence spectra reveal that LZQ and LMQ have broad excitation and emission peaks with maxima at 424 and 528 nm, respectively. The molar extinction coefficient of LZQ was 11,100 M^-1 cm^-1 at 424 nm and the quantum yield in the absence of I^- was 0.53. Stem-Volmer plots for quenching of LZQ and LMQ by I^- and Cl^-, with data for SPQ shown for comparison, were generated. In water (or saline), LZQ fluorescence was quenched by I^- with a Stem-Volmer constant of 60 M^-1. LZQ fluorescence was not quenched (Stem-Volmer constant <1 M^-1) by Cl^-, NO3^-, phosphate, acetate, Na^+ and K^+. LZQ fluorescence and I^- sensitivity were not affected by pH changes in the range 4.5-8.

Data set [2] concerns cells. The data set can be described thus: Fluorescence lifetime in cells (frequency-domain microfluorimetry). In kind it is cell-based. On the procedure: Time resolved fluorescence measurements. Fluorescence lifetime and anisotropy decay measurements were carried out in the frequency domain by cuvette fluorimetry using a Fourier transform fluorimeter (48000 MHF, SLM Instruments, Urbana, Ill.) or by fluorescence microscopy using epifluorescence microscope optics in place of the cuvette compartment (Verkman et al., 1991). For microscopy measurements, impulse-modulated vertically polarized light (442 nm, He--Cd laser 35 mwatts) was reflected onto the sample by a 510 nm dichroic mirror and objective lens; emitted fluorescence was filtered by a 515 nm barrier filter and passed through a rotatable analyzing calcite polarizer. […]
Analysis of lifetime and time-resolved anisotropy was performed by a comparative approach. […] Median phase and modulation values for paired data were analyzed by nonlinear least-squares for determination of lifetimes and rotational correlation times.
A calibration study was done to determine the intracellular sensitivity of LZQ to I^-. […] LZQ fluorescence changed reversibly in response to changes in solution I^-. […] Fluorescence lifetime analysis was done to determine whether LZQ fluorescence is quenched in cells by substances other than I^-. Nanosecond lifetimes were measured by frequency-domain microfluorimetry. […]

Data set [3] deals with cells. The data set can be described thus: Chemical stability in cells (thin layer chromatography of lysates). The class given is cell-based. As to conditions: TLC of lysates from loaded cells. Here is the method: (§1) LZQ and LMQ were loaded into cells efficiently by hypotonic shock or passive incubation. […] As was found for SPQ, LZQ and LMQ were non-toxic to cells in assays of cell growth (2 mM in culture medium for 72 h).

For data set [4], the system named is 3T3 fibroblasts expressing CFTR. Nature of the data set: Intracellular sensitivity to I^-. The class given is cell-based, mouse. On the procedure:
Fluorescence microscopy. Fluorescence microscopy measurements were performed as described previously (Chao et al., 1989). Briefly, coverglasses were mounted in a 0.5 ml perfusion chamber in which the cell-free glass surface made contact with an oil immersion objective (Nikon ×40 magnification, numerical aperture[NA] 1.3). Cell fluorescence was excited at 365±10 nm (SPQ) or 420 nm±10 nm (LZQ and LMQ). Emitted fluorescence was detected by a photomultiplier in a Nikon inverted epifluorescence microscope using a 410 nm dichroic mirror and 420 nm barrier filter (SPQ) or a 455 nm dichroic mirror and 500 nm barrier filter (LZQ). For cells colabeled with SPQ and LZQ, SPQ fluorescence was excited at 365±10 nm and detected using a 410 nm dichroic mirror and 455±30 nm interference filter. Confocal fluorescence micrographs were obtained using a Nipkow wheel confocal microscope and cooled CCD camera detector using a ×60 oil immersion objective (Nikon, NA 1.4). […]
A time course of LZQ fluorescence during perfusion with physiological saline at 23° C. was generated. A small group of 20-30 cells was illuminated continuously and fluorescence was detected by a photomultiplier using an ×40, 1.3 NA objective. Cellular fluorescence decreased slowly at a rate of 2.5% per hour. […] Background fluorescence (in non-labeled cells) was generally <5% of the fluorescence of LZQ-labeled cells. […]

Data set [5] is described as follows: Fluorescence lifetime in water. The class given is physicochemical. Here is the method: Time resolved fluorescence measurements. Fluorescence lifetime and anisotropy decay measurements were carried out in the frequency domain by cuvette fluorimetry using a Fourier transform fluorimeter (48000 MHF, SLM Instruments, Urbana, Ill.) or by fluorescence microscopy using epifluorescence microscope optics in place of the cuvette compartment (Verkman et al., 1991). For microscopy measurements, impulse-modulated vertically polarized light (442 nm, He--Cd laser 35 mwatts) was reflected onto the sample by a 510 nm dichroic mirror and objective lens; emitted fluorescence was filtered by a 515 nm barrier filter and passed through a rotatable analyzing calcite polarizer. In some experiments, a biconcave lens was introduced just in front of the dichroic mirror to diverge beam diameter in the focal plane to […].
Analysis of lifetime and time-resolved anisotropy was performed by a comparative approach. Generally six pairs of measurements (each acquisition 8 s) were obtained, comparing sample and reference (fluorescein in 0.1 N NaOH, lifetime 4.0 ns) for measurement of lifetime, and parallel and perpendicular orientations of the emission polarizer for measurement of anisotropy decay. […] Median phase and modulation values for paired data were analyzed by nonlinear least-squares for determination of lifetimes and rotational correlation times.

Data set [6] relates to cells. The data set can be described thus: Toxicity in assays of cell growth. The class given is cell-based. As to conditions: 2 mM in culture medium for 72 h. On the procedure:
as §1

For data set [7], the system named is cells. The data set can be described thus: Indicator leakage / cytoplasmic retention. In kind it is cell-based. On the procedure:
Fluorescence microscopy. Fluorescence microscopy measurements were performed as described previously (Chao et al., 1989). Briefly, coverglasses were mounted in a 0.5 ml perfusion chamber in which the cell-free glass surface made contact with an oil immersion objective (Nikon ×40 magnification, numerical aperture[NA] 1.3). Cell fluorescence was excited at 365±10 nm (SPQ) or 420 nm±10 nm (LZQ and LMQ). Emitted fluorescence was detected by a photomultiplier in a Nikon inverted epifluorescence microscope using a 410 nm dichroic mirror and 420 nm barrier filter (SPQ) or a 455 nm dichroic mirror and 500 nm barrier filter (LZQ). For cells colabeled with SPQ and LZQ, SPQ fluorescence was excited at 365±10 nm and detected using a 410 nm dichroic mirror and 455±30 nm interference filter. Confocal fluorescence micrographs were obtained using a Nipkow wheel confocal microscope and cooled CCD camera detector using a ×60 oil immersion objective (Nikon, NA 1.4). LZQ-labeled cells were viewed using a fluorescein filter set (excitation 480±15 nm, emission 520±20 nm).
A time course of LZQ fluorescence during perfusion with physiological saline at 23° C. was generated. A small group of 20-30 cells was illuminated continuously and fluorescence was detected by a photomultiplier using an ×40, 1.3 NA objective. Cellular fluorescence decreased slowly at a rate of 2.5% per hour. To determine the relative contributions of indicator leakage vs. photobleaching to the slow decline in fluorescence, the perfused cells were illuminated intermittently. […] Background fluorescence (in non-labeled cells) was generally <5% of the fluorescence of LZQ-labeled cells.

Turning to `[O-]c1nc2c(N[C@@H]3O[C@H](CO)[C@@H](O)[C@H]3O)ncnc2[n+]2ccccc12` [I, 4-(β-D-ribofuranosylamino)-pyrido [2,1-h] pteridin-11-ium-5-olate], in data set [1], the emission maximum came out at 528 nm and the excitation maximum came to 424 nm. Moreover, in data set [1] (Table 4), the Brightness entry is given as “+++”, the “λem (emission wavelength)” value is listed as 528 nm and the “λex (excitation wavelength)” value turned out to be 424 nm. For the same compound, in data set [1] (at 424 nm), the molar extinction coefficient is listed as 11,100 M^-1 cm^-1. The compound further returned a quantum yield in data set [1] (in the absence of I^-) of 0.53. Besides, the “effect of pH on fluorescence” value in data set [1] (pH 4.5-8) is “not affected”. Also, in the data set on cells [2], the “quenching by intracellular components” value is “quenched little by intracellular components”. For the same compound, in the data set with cells [2] (in the absence of I^-, n=4), the “fluorescence lifetime in cells” value is 6.5±0.3 ns. For the same compound, the “chemical stability in cells” value with cells [3] is “remained chemically stable in cells”. The “intracellular Stern-Volmer constant, quenching by I^-” value in data set [4] (high [K^+] and ionophores) turned out to be 26 M⁻¹. For the same compound, in data set [4] (repeated addition and removal of 50 mM I^-), the “cellular fluorescence response to I^-” value is reported as “large, reversible changes in fluorescence”. Further, the fluorescence lifetime in data set [5] (in water, absence of I^-) was determined as 7.1 ns. In data set [5] (increasing [I^-]), the “quenching mechanism (lifetime decrease with [I^-])” value is given as “collisional mechanism”. Moreover, the “toxicity to cells (cell growth)” value in the data set on cells [6] is “non-toxic”. Besides, the “cytoplasmic retention vs. LMQ” value in the data set on cells [7] is on record as “better cytoplasmic retention properties than LMQ”. In the data set with cells [7] (microplate section), the “leakage out of cells” value was “low rate”. Besides, in the data set on cells [7] (perfusion with physiological saline, 23° C.), the “rate of decrease of cellular fluorescence” value worked out at 2.5 % per hour.
